Reference: patent publication US20150368620A1, “METHOD OF DETACHING ADHERENT CELLS FOR FLOW CYTOMETRY” (KING ABDULLAH UNIVERSITY OF SCIENCE AND TECHNOLOGY, priority 2013, published 2015)

Key:
[1] = tested on: BJ cells; conditions: 12 μl of 15 mM EDTA pH 6.14 added to media, 37° C., 96-well
Method: (§1) In one method, five thousand cells were plated per well in 45 μl of media in 96-well plate. The cells were shaken at 750 rpm with an Orbital shaker for 20 seconds and allowed to settle for 16-24 hrs in 5% CO2 incubator at 37° C. A desired concentration of drug was added to cells in a volume of […] to make the final volume per well up to 50 μl. The cells and drug were mixed at 750 rpm with an Orbital shaker for 20 seconds and incubated again for desired period of time. Twelve microliters of 15 mM EDTA pH 6.14 (upto 20 mM can be added depending on the cell line) were added per well, mixed at 750 rpm with an Orbital shaker for 20 seconds and incubated at 37° C. for 45 min to 1 hour (until cells lift). Fifteen microliters of media containing 1 μl APOPercentage dye was added to the cells and incubated for 15-20 min at 37° C. The cells were analyzed on flow cytometer setting a threshold for FSC-H of 80,000, cytometer speed at medium (2 μl/sec), peristaltic pump speed at 23 rpm, shaking on 1800 rpm, gating on 2D plot of FSC vs SSC and a 1D plot measuring FL2-H/FL3-H on the X axis. The HTFC system was used.
(§2) The following steps can be used to measure apoptosis using APOPercentage Assay in adherent cells. 5000 cells per well were plated in 45 μl of media in 96-well plate, shaken at 750 rpm with an Orbital shaker for 20 seconds, and allowed to settle 16-24 hours (h). Desired concentration of drug was added to cells in a volume of […] to make the final volume per well up to 50 μl, was shaken at 750 rpm with an Orbital shaker for 20 seconds, and was then incubated for desired period of time. 12 μl of 15 mM EDTA pH 6.14 per well was added (upto 20 mM can be added depending on the cell line). Shake at 750 rpm with an Orbital shaker for 20 seconds and incubate at 37° C. for 15 minutes (min) to 1 h (until cells lift).

[2] = tested on: DU145 cells; conditions: 12 μl of 15 mM EDTA pH 6.14 added to media, 37° C., 96-well
Method: as §1, §2

[3] = tested on: HT1080 cells; conditions: 12 μl of 15 mM EDTA pH 6.14 added to media, 37° C., 96-well
Method: as §1, §2

[4] = tested on: HeLa cells; conditions: 12 μl of 15 mM EDTA pH 6.14 added to media, 37° C., 96-well
Method: as §1, §2

[5] = tested on: MCF-7 cells; conditions: 12 μl of 15 mM EDTA pH 6.14 added to media, 37° C., 96-well
Method: as §1, §2

[6] = tested on: BT20 cells; conditions: 12 μl of 15 mM EDTA pH 6.14 added to media, 37° C., 96-well
Method: as §2, with “5000” for “The following steps can be used to measure apoptosis using APOPercentage Assay in adherent cells. 5000”, “12 μl of 15 mM EDTA pH 6.14 per well was added (upto 20 mM can be added depending on the cell line).” left out

[7] = tested on: BJ, MCF-7 and HeLa cells; conditions: untreated cells lifted with EDTA, APOPercentage staining
Method: as §1

[8] = tested on: HeLa cells; test: APOPercentage apoptosis assay by flow cytometry; format: cell-based; conditions: APOPercentage dye, 2.5 mM H2O2 positive control, Accuri C6 HTFC, 96-well
Method: (§3) The HTFC system was used.
(§4) Untreated and treated HeLa cells were also analyzed by flow cytometry on an Accuri C6 flow cytometer to determine the percentage of cells undergoing apoptosis (FIG. 4). Cells were seeded at a density of 5×10^3 cells per well in 96 well plate. Cells treated with 2.5 mM H2O2 for 30 minutes or 62 μl EDTA pH 6.14 for 15-30 min. added to cells after removing media were used as a positive control for apoptosis. Cells were lifted and stained with 10 APOPercentage dye. The cells were then analyzed by flow cytometry. […] FIG. 4C is a bar graph showing the percentage of non-apoptotic and apoptotic cells within the untreated or treated population of cells.
(§5) Add 15 μl of serum free media containing 1 μl APOPercentage dye and incubate for 15-20 min at 37° C. […] 2.5 mM H2O2 is used as a positive control.
Cells were seeded at a density of 5×10^3 cells per well in a 96-well plate. Following day, cells were treated with 2.5 mM H2O2 for 30 min. or 62 μl EDTA pH 6.14 for 15-30 min. added to cells after removing media as a positive control for apoptosis for 15-30 min. Cells were lifted with EDTA and stained with […] and analyzed by flow cytometry. […] 1D Histogram of untreated (blue) and treated (red) cells measuring fluorescence in the FL2-H channel and applying gates to delineate Non-apoptotic (blue) and Apoptotic (red) cells (FIG. 5B). […]

[9] = tested on: MCF-7 cells; test: APOPercentage apoptosis assay by flow cytometry; format: cell-based; conditions: APOPercentage dye, 2.5 mM H2O2 positive control, Accuri C6 HTFC, 96-well
Method: as §3
as §4, with “treated MCF-7” for “treated HeLa”, “were” for “were also”, “(FIG. 3).” for “(FIG. 4).”, “apoptosis. The cells” for “apoptosis. Cells”, “with 1 μl” for “with 10”, “FIG. 3C” for “FIG. 4C”
as §5
In FIG. 6, MCF-7 Cells untreated (blue, left) or treated (red, right) were analyzed by flow cytometry on a BD LSRFortessa HTS flow cytometer to determine the percentage of cells undergoing apoptosis. Data was analyzed using FlowJo version 7.6.5 software. […] Cells were lifted with EDTA and stained with 1 μl APOPercentage and analyzed by flow cytometry. 1D Histogram of untreated (blue) and treated (red) cells measuring fluorescence in the PE-A channel and applying gates to delineate Non-apoptotic (blue) and Apoptotic (red) cells.

[10] = tested on: BJ fibroblast cells; test: APOPercentage apoptosis assay by flow cytometry; format: cell-based; conditions: APOPercentage dye, 2.5 mM H2O2 positive control, Accuri C6 HTFC, 96-well
Method: as §3
BJ fibroblast cells were analyzed by flow cytometry on an Accuri C6 flow cytometer to determine the percentage of cells undergoing apoptosis (FIG. 2). Cells were seeded at a density of 5×10^3 cells per well in 96 well plate. Cells exposed to 2.5 mM H2O2 for 30 minutes or 62 μl EDTA pH 6.14 for 15-30 min. added to cells after removing media were used as a positive control for apoptosis. Cells were lifted and stained with 1 μl APOPercentage dye. The cells were then analyzed by flow cytometry. […] FIG. 2B includes a 1D Histogram of untreated and treated cells showing the fluorescence measured in the FL2-H channel, where gates were applied to delineate non-apoptotic and apoptotic cells. FIG. 2C is a bar graph showing the percentage of non-apoptotic and apoptotic cells that was measured within the untreated or treated (positive control) population of cells.
as §5

[11] = tested on: DU145 cells; test: APOPercentage apoptosis assay by flow cytometry; format: cell-based; conditions: APOPercentage dye, 2.5 mM H2O2 positive control, Accuri C6 HTFC, 96-well
Method: as §1
(§6) The following steps can be used to measure apoptosis using APOPercentage Assay in adherent cells. 5000 cells per well were plated in 45 μl of media in 96-well plate, shaken at 750 rpm with an Orbital shaker for 20 seconds, and allowed to settle 16-24 hours (h). […]

[12] = tested on: HT1080 cells; test: APOPercentage apoptosis assay by flow cytometry; format: cell-based; conditions: APOPercentage dye, 2.5 mM H2O2 positive control, Accuri C6 HTFC, 96-well
Method: as §1, §6

[13] = tested on: DU145 cells; test: Mitochondrial membrane potential (MMP) JC-1 assay by flow cytometry; format: cell-based; conditions: 2 μM JC-1, 100 mM H2O2 positive control, Accuri C6 HTFC, 96-well
Method: (§7) The following can be the steps used to determining MMP by Flow Cytometry in adherent cells. […] Add 15 μl of serum free media containing JC-1 dye so that the final concentration is 2 μM in a total volume of 77 μl and incubate for 1-2 h at 37° C. […] 100 mM H2O2 can be used as a positive control.
In FIGS. 7A-B, DU145 Cells unstained (blue), untreated (red) or treated (green) were analyzed by flow cytometry on an Accuri C6 to determine the percentage of cells with disrupted MMP. Cells were seeded at a density of 5×10^3 cells per well in 96-well plate. Following day media was removed from cells and replaced with 50 μl EDTA as a positive control for MMP disruption for 60 min. Cells were lifted with EDTA and stained with a final concentration of 2 μM JC-1 dye and analyzed by flow cytometry. Separation of unstained (blue), untreated (red) and treated (green) cells based on FL2-H and FL-1-H profile (A). 1D Histogram of unstained (blue), untreated (red) and treated (green) cells measuring fluorescence in the FL2-H channel (B).
In FIG. 8, DU145 and MCF-7 Cells were analyzed by flow cytometry on a BD LSRFortessa HTS to determine the level of MMP in cells. Data was analyzed using FlowJo version 7.6.5 software. […] Cells were lifted with EDTA and analyzed by flow cytometry.

[14] = tested on: HeLa cells; test: as above; format: cell-based; conditions: 2 μM JC-1, 100 mM H2O2 positive control, Accuri C6 HTFC, 96-well
Method: as §7

[15] = tested on: MCF-7 cells; test: as above; format: cell-based; conditions: 2 μM JC-1, 100 mM H2O2 positive control, Accuri C6 HTFC, 96-well
Method: as §7
In FIG. […] Data was analyzed using FlowJo version 7.6.5 software. Cells were seeded at a density of 5×10^3 cells per well in a 96-well plate, the following day cells were left untreated (red) or treated with 100 mM H2O2 as a positive control (blue) for MMP disruption. DU145 cells were stained with a final concentration of 2 μM JC-1 dye (representative image). Cells were lifted with EDTA and analyzed by flow cytometry.

[16] = tested on: HeLa cells; test: Reactive oxygen species (ROS) DCFDA assay by flow cytometry; format: cell-based; conditions: 10 μM DCFDA, 10 mM H2O2 positive control, Accuri C6 HTFC, 96-well
Method: (§8) Add 15 μl of serum free media and incubate for 5-10 min.
In FIG. 9, HeLa and MCF-7 Cells were analyzed by flow cytometry on an Accuri C6 to determine the level of ROS in cells. Cells were seeded at a density of 5×10^3 cells per well in a 96-well plate, the following day cells were treated with 10 mM H2O2 as a positive control for ROS and test compounds. HeLa cells were stained with a final concentration of 10 μM DCFDA dye immediately after adding H2O2 (A). After incubation cells were lifted with EDTA and analyzed by flow cytometry. Separation of untreated (yellow) and treated (purple) cells based on FL-1-H profile (A). MCF-7 cells were treated with Plumbagin and its derivative Crotonate Plumbagin for 1 h (B). A final 10 μM DCFDA was added simultaneously with Plumbagin and its derivative to cells. Following incubation with drug cells were lifted with EDTA and analyzed by flow cytometry.
In FIGS. 10A-B, MCF-7 and HeLa Cells were analyzed by flow cytometry on a BD LSRFortessa HTS to determine the level of ROS in cells. Data was analyzed using FlowJo version 7.6.5 software. Cells were seeded at a density of 5×10^3 cells per well in a 96-well plate, the following day cells were left untreated (blue peak) or treated with 10 mM H2O2 as a positive control (red peak) for ROS. […] Cells were lifted with EDTA and analyzed by flow cytometry.

[17] = tested on: MCF-7 cells; test: as above; format: cell-based; conditions: 10 μM DCFDA, 2-10 mM H2O2 positive control, Accuri C6 HTFC, 96-well
Method: as §8
In FIGS. […] Data was analyzed using FlowJo version 7.6.5 software. Cells were seeded at a density of 5×10^3 cells per well in a 96-well plate, the following day cells were left untreated (blue peak) or treated with 10 mM H2O2 as a positive control (red peak) for ROS. MCF-7 and HeLa cells were stained with a final concentration of 10 μM DCFDA dye immediately after adding H2O2 (A and B). Cells were lifted with EDTA and analyzed by flow cytometry.

[18] = tested on: BT20 cells; test: as above; format: cell-based; conditions: 10 μM DCFDA, 2-10 mM H2O2 positive control, Accuri C6 HTFC, 96-well
Method: as §8

Row | SMILES | Time to lift with EDTA [1] [min] | Time to lift with EDTA [2] [min] | Time to lift with EDTA [3] [min] | Time to lift with EDTA [4] [min] | Time to lift with EDTA [5] [min] | Time to lift with EDTA [6] [min] | effect of cell lifting chemical on untreated cells (membrane, apoptosis) [7] | Percent cells stained in positive control [8] [%] | Percent cells stained in positive control [9] [%] | Percent cells stained in positive control [10] [%] | Percent cells stained in positive control [11] [%] | Percent cells stained in positive control [12] [%] | Percent cells having JC-1 green in treated positive control [13] [%] | Percent cells having JC-1 green in treated positive control [14] [%] | Percent cells having JC-1 green in treated positive control [15] [%] | Percent cells stained with DCFDA in treated positive control [16] [%] | Percent cells stained with DCFDA in treated positive control [17] [%] | Percent cells stained with DCFDA in treated positive control [18] [%]
1 | O=C(O)CN(CCN(CC(=O)O)CC(=O)O)CC(=O)O [EDTA, ethylenediaminetetraacetic acid] | 30 to 50 | 20 to 30 | 20 to 30 | 30 to 45 | 15 to 20 | 40 to 60 | did not induce unwanted apoptosis in untreated cells |  |  |  |  |  |  |  |  |  |  | 
2 | OO [H2O2] |  |  |  |  |  |  |  | 90 | 85 | 90 | 90 | 95 | 90 | 90 | 95 | 90 | 90 | 95
